Literature values in US20110201657A1, “AMIDE SUBSTITUTED INDAZOLE AND BENZOTRIAZOLE DERIVATIVES AS POLY(ADP-RIBOSE)POLYMERASE (PARP) INHIBITORS” (Istituto di Ricerche di Biologia Molecolare P. Angeletti SpA, priority 2006, published 2011).

System: infarct size in the heart
Details: rabbits

Row | Structure (SMILES) | reduction in infarct size (single injection 1 mg/kg) | reduction in infarct size in the heart (single injection 10 mg/kg, one minute before occlusion or before reperfusion)
1 | Oc1cccc2c(O)nccc12 [1,5-dihydroxyisoquinoline] | 38-48% | –
2 | NC(=O)c1cccc(N)c1 [3-amino-benzamide] | – | 32-42%
